Source: ChEMBL document CHEMBL5696442, “Discovery of type II inhibitors of TGFβ-activated kinase 1 (TAK1) and mitogen-activated protein kinase kinase kinase kinase 2 (MAP4K2)” (J Med Chem, 2015)
Active and inactive are the calls of the source. The rule behind the calls is not given here.

Columns and labels:
[1] = target: T1, Scaffold protein ILK (Homo sapiens) (UniProt Q13418); assay: Inhibition of ILK Lys1 labeling site in human Huh-7 cells at 1 uM by KiNativ Profiling analysis relative to control; assay type: cell-based
T1 sequence (whole entry): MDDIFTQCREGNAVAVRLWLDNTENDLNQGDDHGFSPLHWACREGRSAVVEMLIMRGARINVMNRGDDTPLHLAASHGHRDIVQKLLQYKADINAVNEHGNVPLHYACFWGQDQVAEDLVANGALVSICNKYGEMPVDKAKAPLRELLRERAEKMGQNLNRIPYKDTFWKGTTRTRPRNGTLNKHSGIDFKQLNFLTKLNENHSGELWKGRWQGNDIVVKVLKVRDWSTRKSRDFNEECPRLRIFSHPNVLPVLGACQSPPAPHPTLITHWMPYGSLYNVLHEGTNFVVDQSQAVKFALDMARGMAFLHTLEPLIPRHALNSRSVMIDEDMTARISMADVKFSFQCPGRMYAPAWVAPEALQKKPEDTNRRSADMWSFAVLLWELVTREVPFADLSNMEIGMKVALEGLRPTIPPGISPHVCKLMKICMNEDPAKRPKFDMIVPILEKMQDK

[2] = target: Phosphatidylinositol 4,5-bisphosphate 3-kinase catalytic subunit alpha isoform (Homo sapiens) (UniProt P42336); assay: Inhibition of PIK3CA ATP labeling site in human Huh-7 cell lysate at 1 uM by KiNativ Profiling analysis relative to control; assay type: subcellular
Phosphatidylinositol 4,5-bisphosphate 3-kinase catalytic subunit alpha isoform (Homo sapiens), sequence (P42336 whole entry, canonical isoform): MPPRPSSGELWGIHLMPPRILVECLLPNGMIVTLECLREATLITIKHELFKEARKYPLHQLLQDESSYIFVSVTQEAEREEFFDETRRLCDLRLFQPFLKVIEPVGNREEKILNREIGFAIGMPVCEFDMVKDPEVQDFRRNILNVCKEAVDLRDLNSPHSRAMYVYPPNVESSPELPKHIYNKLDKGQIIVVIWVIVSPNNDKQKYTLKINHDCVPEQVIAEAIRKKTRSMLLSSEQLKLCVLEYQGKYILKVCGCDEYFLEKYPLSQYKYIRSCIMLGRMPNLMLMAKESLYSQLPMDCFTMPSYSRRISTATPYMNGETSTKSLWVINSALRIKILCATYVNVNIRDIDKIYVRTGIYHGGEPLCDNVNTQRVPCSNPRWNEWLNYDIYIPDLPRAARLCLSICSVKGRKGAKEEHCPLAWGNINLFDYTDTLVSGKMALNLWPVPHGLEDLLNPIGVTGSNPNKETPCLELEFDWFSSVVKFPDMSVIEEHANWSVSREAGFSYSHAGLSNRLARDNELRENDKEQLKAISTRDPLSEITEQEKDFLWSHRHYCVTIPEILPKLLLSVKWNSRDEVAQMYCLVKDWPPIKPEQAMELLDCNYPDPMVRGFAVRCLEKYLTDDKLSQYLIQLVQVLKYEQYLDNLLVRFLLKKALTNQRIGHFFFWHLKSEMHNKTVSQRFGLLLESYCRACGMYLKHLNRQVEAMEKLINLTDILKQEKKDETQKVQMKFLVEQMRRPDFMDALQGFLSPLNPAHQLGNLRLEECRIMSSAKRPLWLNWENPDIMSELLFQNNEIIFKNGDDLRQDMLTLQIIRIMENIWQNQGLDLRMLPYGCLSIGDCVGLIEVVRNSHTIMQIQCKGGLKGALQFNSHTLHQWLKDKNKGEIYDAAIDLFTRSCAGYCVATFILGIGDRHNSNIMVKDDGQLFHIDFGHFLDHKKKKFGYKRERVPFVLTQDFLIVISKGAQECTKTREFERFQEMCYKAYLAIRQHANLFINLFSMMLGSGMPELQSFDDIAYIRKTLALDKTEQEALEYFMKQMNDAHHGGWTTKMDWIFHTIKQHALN

[3] = target: 3-phosphoinositide-dependent protein kinase 1 (Homo sapiens) (UniProt O15530); assay: Inhibition of PDPK1 (unknown origin) at 10 uM by Ambit Kinomescan binding assay
[4] = tested on: Receptor-type tyrosine-protein kinase FLT3 (Homo sapiens), P36888 [D835H]; assay: Inhibition of FLT3 D835H mutant (unknown origin) at 10 uM by Ambit Kinomescan binding assay relative to control
[5] = target: T2, Myotonin-protein kinase (Homo sapiens) (UniProt Q09013); assay: Inhibition of DMPK (unknown origin) at 10 uM by Ambit Kinomescan binding assay
T2 sequence (whole entry): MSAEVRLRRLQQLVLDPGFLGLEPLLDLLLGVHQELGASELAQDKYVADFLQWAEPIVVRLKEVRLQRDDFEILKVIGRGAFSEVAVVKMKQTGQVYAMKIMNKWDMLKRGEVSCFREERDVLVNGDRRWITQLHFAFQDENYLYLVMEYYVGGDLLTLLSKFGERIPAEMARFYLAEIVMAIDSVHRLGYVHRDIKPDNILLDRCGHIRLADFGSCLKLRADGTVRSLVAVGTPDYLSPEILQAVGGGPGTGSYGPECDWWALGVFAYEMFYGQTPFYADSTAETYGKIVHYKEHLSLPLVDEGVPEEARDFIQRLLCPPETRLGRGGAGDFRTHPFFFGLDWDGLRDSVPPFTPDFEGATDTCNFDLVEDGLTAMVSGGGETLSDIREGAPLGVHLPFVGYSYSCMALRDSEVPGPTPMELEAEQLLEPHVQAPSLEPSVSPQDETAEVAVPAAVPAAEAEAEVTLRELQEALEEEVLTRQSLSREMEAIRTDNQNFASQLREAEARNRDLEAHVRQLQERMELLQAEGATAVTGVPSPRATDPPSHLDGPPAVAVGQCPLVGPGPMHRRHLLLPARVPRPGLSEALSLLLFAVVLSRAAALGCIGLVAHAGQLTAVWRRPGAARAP

[6] = target: TGF-beta receptor type-1 (Homo sapiens) (UniProt P36897); assay: Inhibition of TGFBR1 (unknown origin) at 10 uM by Ambit Kinomescan binding assay
TGF-beta receptor type-1 (Homo sapiens), sequence (P36897 whole entry): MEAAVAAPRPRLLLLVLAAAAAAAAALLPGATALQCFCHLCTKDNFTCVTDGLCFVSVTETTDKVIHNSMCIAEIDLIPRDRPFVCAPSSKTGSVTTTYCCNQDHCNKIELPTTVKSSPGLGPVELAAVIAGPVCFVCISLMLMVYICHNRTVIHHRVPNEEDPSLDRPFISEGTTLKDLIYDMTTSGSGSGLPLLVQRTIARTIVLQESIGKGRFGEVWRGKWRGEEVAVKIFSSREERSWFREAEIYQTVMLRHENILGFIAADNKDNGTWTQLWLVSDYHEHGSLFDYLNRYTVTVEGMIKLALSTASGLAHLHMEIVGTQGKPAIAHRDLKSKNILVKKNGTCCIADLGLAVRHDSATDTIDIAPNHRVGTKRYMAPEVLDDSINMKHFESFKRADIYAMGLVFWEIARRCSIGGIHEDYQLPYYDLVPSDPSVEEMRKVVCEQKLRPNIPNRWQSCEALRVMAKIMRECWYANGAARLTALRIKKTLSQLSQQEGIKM

[7] = target: Cyclin-dependent kinase 2 (Homo sapiens) (UniProt P24941); assay: Inhibition of CDK2 (unknown origin) at 10 uM by Ambit Kinomescan binding assay relative to control
[8] = target: T3, Phosphatidylinositol 5-phosphate 4-kinase type-2 alpha (Homo sapiens) (UniProt P48426); assay: Inhibition of PIP5K2A LIP labeling site in human Huh-7 cells at 1 uM by KiNativ Profiling analysis relative to control; assay type: cell-based
T3 sequence (whole entry): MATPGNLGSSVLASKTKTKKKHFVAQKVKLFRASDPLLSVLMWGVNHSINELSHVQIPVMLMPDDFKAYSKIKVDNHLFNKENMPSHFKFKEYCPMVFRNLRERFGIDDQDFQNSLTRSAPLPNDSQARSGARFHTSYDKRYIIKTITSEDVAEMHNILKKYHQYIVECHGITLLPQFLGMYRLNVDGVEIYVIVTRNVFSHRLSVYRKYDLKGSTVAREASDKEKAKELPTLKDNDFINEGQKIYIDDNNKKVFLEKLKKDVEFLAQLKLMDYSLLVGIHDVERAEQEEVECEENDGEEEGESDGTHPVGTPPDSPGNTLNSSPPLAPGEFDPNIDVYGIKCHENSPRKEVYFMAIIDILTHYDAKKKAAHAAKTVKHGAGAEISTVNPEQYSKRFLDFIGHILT

[9] = tested on: Tyrosine-protein kinase ABL1 (Homo sapiens), P00519 [Q252H]; assay: Inhibition of ABL1 Q252H mutant (unknown origin) at 10 uM by Ambit Kinomescan binding assay relative to control
[10] = target: Vascular endothelial growth factor receptor 2 (Homo sapiens) (UniProt P35968); assay: Inhibition of VEGFR2 (unknown origin) at 1 uM by Ambit Kinomescan binding assay relative to control
Vascular endothelial growth factor receptor 2 (Homo sapiens), sequence (P35968 whole entry): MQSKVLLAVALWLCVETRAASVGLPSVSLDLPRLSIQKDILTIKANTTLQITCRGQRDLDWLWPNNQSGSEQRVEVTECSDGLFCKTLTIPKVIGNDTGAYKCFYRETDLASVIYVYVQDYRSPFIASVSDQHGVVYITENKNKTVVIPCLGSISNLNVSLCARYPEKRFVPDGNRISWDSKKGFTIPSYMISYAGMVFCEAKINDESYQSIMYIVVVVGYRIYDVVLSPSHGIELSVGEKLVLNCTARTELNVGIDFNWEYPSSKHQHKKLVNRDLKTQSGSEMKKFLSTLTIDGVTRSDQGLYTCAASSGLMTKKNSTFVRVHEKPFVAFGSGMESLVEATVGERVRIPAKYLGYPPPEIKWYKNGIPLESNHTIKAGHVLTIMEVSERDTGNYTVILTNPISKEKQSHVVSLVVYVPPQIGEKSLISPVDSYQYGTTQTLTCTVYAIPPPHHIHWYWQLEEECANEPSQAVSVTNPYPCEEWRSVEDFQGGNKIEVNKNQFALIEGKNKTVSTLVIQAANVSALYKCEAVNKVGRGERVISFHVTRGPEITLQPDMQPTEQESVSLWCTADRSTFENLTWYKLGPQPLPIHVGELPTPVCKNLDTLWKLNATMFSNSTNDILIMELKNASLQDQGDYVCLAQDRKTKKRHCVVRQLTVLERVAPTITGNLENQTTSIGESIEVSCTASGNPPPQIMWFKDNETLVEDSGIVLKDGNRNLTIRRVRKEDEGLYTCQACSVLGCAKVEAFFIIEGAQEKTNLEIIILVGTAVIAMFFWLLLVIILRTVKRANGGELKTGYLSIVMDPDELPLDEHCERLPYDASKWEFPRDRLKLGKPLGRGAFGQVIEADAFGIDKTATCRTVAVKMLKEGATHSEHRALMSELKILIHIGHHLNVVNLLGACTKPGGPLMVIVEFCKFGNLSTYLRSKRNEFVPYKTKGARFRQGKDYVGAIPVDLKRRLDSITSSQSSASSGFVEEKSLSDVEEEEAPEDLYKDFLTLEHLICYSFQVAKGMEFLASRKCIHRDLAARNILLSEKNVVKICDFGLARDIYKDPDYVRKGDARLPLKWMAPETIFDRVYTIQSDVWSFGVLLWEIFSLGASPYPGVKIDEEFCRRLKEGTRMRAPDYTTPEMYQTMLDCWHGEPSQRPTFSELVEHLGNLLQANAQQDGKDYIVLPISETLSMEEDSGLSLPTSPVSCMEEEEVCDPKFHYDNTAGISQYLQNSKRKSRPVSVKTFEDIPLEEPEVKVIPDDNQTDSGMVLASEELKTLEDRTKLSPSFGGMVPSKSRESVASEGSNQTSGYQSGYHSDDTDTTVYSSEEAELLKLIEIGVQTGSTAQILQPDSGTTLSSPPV

[11] = target: Calcium/calmodulin-dependent protein kinase type II subunit gamma (Homo sapiens) (UniProt Q13555); assay: Inhibition of CaMK2g Lys1 labeling site harbouring KTSTQEYAAKIINTKK in human A-375 cells at 0.5 uM by KiNativ Profiling analysis relative to control; assay type: cell-based
[12] = target: Cyclin-dependent kinase 7 (Homo sapiens) (UniProt P50613); assay: Inhibition of CDK7 Lys2 labeling site in human A-375 cells at 5 uM by KiNativ Profiling analysis relative to control; assay type: cell-based
Cyclin-dependent kinase 7 (Homo sapiens), sequence (P50613 whole entry): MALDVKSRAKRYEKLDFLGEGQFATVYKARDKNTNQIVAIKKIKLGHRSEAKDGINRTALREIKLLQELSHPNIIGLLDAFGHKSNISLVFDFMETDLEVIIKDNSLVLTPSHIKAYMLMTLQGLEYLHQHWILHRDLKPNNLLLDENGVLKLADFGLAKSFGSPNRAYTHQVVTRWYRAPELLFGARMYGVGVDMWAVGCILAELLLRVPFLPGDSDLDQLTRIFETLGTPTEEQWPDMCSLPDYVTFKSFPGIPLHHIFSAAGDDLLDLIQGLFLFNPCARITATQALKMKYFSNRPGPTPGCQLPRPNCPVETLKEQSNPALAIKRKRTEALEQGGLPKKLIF

[13] = target: ALK tyrosine kinase receptor (Homo sapiens) (UniProt Q9UM73); assay: Inhibition of ALK (unknown origin) at 1 uM by Ambit Kinomescan binding assay relative to control
ALK tyrosine kinase receptor (Homo sapiens), sequence (Q9UM73 19-1620 limits assumed): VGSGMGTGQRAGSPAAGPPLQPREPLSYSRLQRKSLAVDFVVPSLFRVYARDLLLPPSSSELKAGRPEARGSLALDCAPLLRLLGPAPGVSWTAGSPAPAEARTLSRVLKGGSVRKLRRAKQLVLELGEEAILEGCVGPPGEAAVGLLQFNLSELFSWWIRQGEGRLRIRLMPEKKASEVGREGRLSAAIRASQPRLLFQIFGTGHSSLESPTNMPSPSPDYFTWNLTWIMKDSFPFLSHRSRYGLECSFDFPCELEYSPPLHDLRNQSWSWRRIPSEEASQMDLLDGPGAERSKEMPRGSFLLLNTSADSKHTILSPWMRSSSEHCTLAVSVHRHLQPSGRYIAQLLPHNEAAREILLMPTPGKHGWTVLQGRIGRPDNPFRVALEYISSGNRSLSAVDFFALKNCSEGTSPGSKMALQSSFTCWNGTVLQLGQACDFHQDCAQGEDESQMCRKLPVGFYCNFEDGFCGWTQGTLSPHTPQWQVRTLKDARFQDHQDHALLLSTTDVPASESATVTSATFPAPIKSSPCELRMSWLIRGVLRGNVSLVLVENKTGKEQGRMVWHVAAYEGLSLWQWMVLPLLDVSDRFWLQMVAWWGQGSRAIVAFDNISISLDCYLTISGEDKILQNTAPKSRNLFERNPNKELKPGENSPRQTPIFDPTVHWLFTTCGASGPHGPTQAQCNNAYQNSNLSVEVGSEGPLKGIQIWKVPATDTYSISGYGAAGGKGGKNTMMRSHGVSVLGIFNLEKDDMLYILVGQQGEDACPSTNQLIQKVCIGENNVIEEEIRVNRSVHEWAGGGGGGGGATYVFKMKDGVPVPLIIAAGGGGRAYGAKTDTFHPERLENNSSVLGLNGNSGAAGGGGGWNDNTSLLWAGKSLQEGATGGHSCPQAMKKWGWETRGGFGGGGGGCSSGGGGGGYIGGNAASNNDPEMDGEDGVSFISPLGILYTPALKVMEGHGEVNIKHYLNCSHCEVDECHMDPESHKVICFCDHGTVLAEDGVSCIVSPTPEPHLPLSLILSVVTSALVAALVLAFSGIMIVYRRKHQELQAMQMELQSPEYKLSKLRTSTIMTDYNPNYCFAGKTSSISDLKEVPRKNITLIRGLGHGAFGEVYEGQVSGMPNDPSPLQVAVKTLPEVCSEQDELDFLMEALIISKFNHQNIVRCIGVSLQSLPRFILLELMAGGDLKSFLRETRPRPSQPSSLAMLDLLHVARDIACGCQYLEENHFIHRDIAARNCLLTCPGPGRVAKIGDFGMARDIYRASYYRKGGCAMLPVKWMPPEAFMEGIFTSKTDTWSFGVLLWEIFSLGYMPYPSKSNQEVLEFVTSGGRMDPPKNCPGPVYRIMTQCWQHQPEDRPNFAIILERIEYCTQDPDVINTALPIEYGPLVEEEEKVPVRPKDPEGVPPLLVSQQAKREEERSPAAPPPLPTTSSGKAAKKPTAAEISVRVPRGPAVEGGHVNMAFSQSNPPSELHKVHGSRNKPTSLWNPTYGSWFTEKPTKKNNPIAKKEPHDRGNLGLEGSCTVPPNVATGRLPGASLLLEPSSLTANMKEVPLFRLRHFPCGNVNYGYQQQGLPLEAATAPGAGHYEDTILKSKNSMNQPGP

[14] = target: T4, Dual specificity mitogen-activated protein kinase kinase 6 (Homo sapiens) (UniProt P52564); assay: Inhibition of MAP2K6 Lys2 labeling site in human A-375 cells at 0.5 uM by KiNativ Profiling analysis relative to control; assay type: cell-based
T4 sequence (whole entry): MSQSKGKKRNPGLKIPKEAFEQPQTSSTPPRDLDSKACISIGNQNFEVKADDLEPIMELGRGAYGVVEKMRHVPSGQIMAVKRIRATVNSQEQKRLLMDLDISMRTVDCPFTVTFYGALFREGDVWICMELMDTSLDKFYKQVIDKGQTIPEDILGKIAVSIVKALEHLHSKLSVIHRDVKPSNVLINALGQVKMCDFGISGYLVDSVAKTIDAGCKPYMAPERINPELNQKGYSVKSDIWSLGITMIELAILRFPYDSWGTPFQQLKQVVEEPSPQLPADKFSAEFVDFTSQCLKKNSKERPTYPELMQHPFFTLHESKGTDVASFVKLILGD

Compound: CNc1cc(Oc2cc(C(=O)Nc3cc(N4CCN(C)CC4)cc(C(F)(F)F)c3)ccc2C)ncn1
- inhibition [1]: -6.7%
- inhibition [2]: 12.4%

Compound: CCN1CCN(Cc2ccc(NC(=O)c3ccc(C)c(Oc4ccnc5[nH]ccc45)c3)cc2C(F)(F)F)CC1
- inhibition [3]: inactive
- inhibition [4]: 1.2%
- inhibition [5]: inactive
- inhibition [6]: inactive
- inhibition [7]: 11%
- inhibition [8]: -0.3%
- inhibition [9]: 0.4%

Compound: CCN1CCN(Cc2ccc(NC(=O)c3ccc(C)c(/C=C/c4cnc5[nH]ccc5c4OC)c3)cc2C(F)(F)F)CC1
- inhibition [10]: 14%
- inhibition [11]: 13%
- inhibition [12]: 38.7%
- inhibition [13]: 80%
- inhibition [14]: -7%
